Where only a bound is given, the exact number is not on record here.

Data on 87 molecules can be found in a melting point compilation (Tetko et al.; mined from patent text by program, amines drawn as free bases though some values may be those of a salt).

As to `COCCc1nc2c(N)nc3ccccc3c2n1CC1(O)CCOCC1`, the melting point lay within 205 to 206 °C. Molecule `CCN1CCCC(CC)(c2ccc(Nc3ncc4ccc(-c5ccccc5N(C)S(C)(=O)=O)n4n3)cc2)C1` (configuration not stated) gave a melting point of 93 to 101 °C. As for `CC(C)(C)C(=O)c1ccc(C(=O)NC(=O)c2ccc(C(=O)C(C)(C)C)cc2)cc1`, the melting point lay in the range of 131 to 132 °C. `CN(C)C=CC(=O)C1CC1` returned a melting point of 55 °C.

Take `COc1cc(S(C)(=O)=O)ccc1-c1nc2cnccc2[nH]1`: the melting point fell in the range of 234 to 235 °C.

On to `COC(=O)c1sc2ccccc2c1CBr`, for which the melting point is 101 to 102 °C.

`CCOC(=O)C=Cc1cc(C=CC(=O)OCC)cc(CO)c1` displayed a melting point of 68 to 69.5 °C. `NC(=O)N1CC(Sc2ccc(Cl)cc2)C1` had a melting point of 210 to 212 °C. For the molecule `O=C(Cc1ccccc1C(F)(F)F)c1c(O)c2cccnc2n(-c2ccccc2)c1=O`, the melting point fell in the range of 140 to 142 °C. For `Nc1nc2ccccc2c2c1ncn2CCCCNC(=O)c1ccccc1Oc1ccccc1` the value was 93 to 94 °C; for `O=C(O)c1cc(Cl)ccc1OCc1ccccc1`, 113 to 115 °C. `CN(C)CCNC(=O)N1CCC(Oc2cccc(Cl)c2Cl)C1` (configuration not stated) had a melting point of 94 to 95 °C. Turning to `CCC(O)(c1cccc(NS(=O)(=O)CC)c1)c1c[nH]cn1` (configuration not stated), the melting point lay in the range of 120 to 124 °C. For `Cc1cc(NC(=O)NC2=C(c3ccccc3)c3ccccc3CS2)cc(C)c1O` the value was 227 to 228 °C; for `CC(CC(C(=O)N(C)C)(c1ccccc1)c1ccccc1)N1CCC(NCc2ccccc2)C(O)C1` (configuration not stated), 134 °C. In turn, `OC(CCCCCCCCOCc1ccccc1)c1ccc(OCc2ccccc2)c(OCc2ccccc2)c1` (configuration not stated) showed a melting point of 46 to 48 °C.

The molecule `COc1ccc(-c2nnc(Cl)cc2C)cc1` yielded a melting point of 132 °C. `O=C(Nc1cn(C2CCCCO2)nc1C(=O)NCCNc1ccccc1)c1ccccn1` (configuration not stated) gave a melting point of 182 to 183 °C. For `COC(=O)c1ccc(Cc2cccc3ccc(C(N)=O)cc23)c(OC)c1`, the melting point was 215 to 216 °C.

For the molecule `CC(O)c1cc(F)ccc1Oc1nc2ccc(NC(=O)Nc3cccc([N+](=O)[O-])c3)cc2cc1Cc1ccccc1` (configuration not stated), the melting point is 217 to 219 °C. Molecule `Cc1cc(C(=O)N(C)C)ncc1C(c1cc(F)ccc1F)S(=O)(=O)c1ccc(Cl)cc1` (configuration not stated) showed a melting point of 207 to 208 °C. Take `Nc1nc2cccnc2c2c1ncn2Cc1cc(-c2ccc(F)cc2)no1`: the melting point lay in the range of 265 to 266 °C. With `CN(C(=O)OC(C)(C)C)c1ccc(C#CCCCO)cc1`, the melting point was in the range of 103 to 105 °C. As to `CCOC(=O)c1ccccc1Nc1nc(Nc2ccc3c(c2)CCN(CCOC)CC3)ncc1Cl`, the melting point lay within 78 to 80 °C.

In turn, `O=C(O)CCCc1cc2nc(Cl)ccc2n1S(=O)(=O)c1ccc(Cl)cc1Cl` displayed a melting point of 154 to 155 °C.

`Cc1nc(Cn2c(=O)sc3cc(F)c(N)cc32)no1` registered a melting point of 156 to 157 °C. The value for `O=C(O)C(=O)CC(=O)c1cccn1Cc1ccccc1-c1ccccc1` was 150 to 152 °C; that for `CC(C)C[C@H](NC(=O)OCc1ccccc1)C(=O)N[C@@H](Cc1ccccc1)C(=O)CS(C)=O` (some centres not stated) was 97 to 102 °C. As to `Cn1cc(C(=O)CCC(=O)O)nc1-c1ccccc1`, the melting point is 191 to 192 °C. `CN(C)c1ccc(C(c2ccc(N(C)C)cc2)c2ccc(N(C)C)cc2C(=O)O)cc1` registered a melting point of 210 to 212 °C. With `CC(C)(C)OC(=O)Nc1cc(CC#N)c(C#Cc2ccccc2)cc1[N+](=O)[O-]`, the melting point worked out at 166 °C. Regarding `OC(c1ccc(F)cc1)(c1ccc(F)cc1)c1nccn1Cc1ccccc1`, the melting point was in the range of 176 to 177 °C. In turn, `O=C1C2=C(C=C3OCCC13)CCCO2` (configuration not stated) displayed a melting point of 101 °C. As for `O=S(=O)(c1ccc(Nc2nccc(Nc3ccc(F)cc3)n2)cc1)N(CCN1CCCC1)C1CCC2(CC1)OCCO2`, the melting point was 155 °C. In turn, `[N-]=[N+]=Nc1nc(N=[N+]=[N-])c2ncn(COC(CO)CO)c2n1` came in with a melting point of 174 to 180 °C. `Cc1ccc2cccc(OCc3c(C)ccc([N+](=O)[O-])c3C)c2n1` gave a melting point of 150 to 152 °C. For `CC(C)(C)c1ccnc(NC(=O)Nc2ccc(Oc3ccc(Cl)cc3)cc2)c1` the value was 198 to 199 °C; for `Cc1ccc(SCc2noc(-c3ccccc3)n2)cc1`, 71 °C. `Cc1ccnc2c1nc(COc1ccc(CC3SC(=O)NC3=O)cc1)n2C` (configuration not stated) gave a melting point of 205 to 207 °C. `Cc1ccc2nc(SCc3ccccn3)n(-c3ccccc3)c(=O)c2c1`: the melting point was in the range of 167 to 169 °C. Consider `O=CC=CC(=C(c1ccc(F)cc1)c1ccc(F)cc1)c1nnn(C(c2ccccc2)(c2ccccc2)c2ccccc2)n1`, for which the melting point lay in the range of 122 to 124 °C. For `CCCn1nc2c(N)nc3ccccc3c2c1CCCC1=CCN(Cc2ccccc2)C1` the value was 150 to 152 °C; for `CCn1c(=O)c2c(nc(/C=C/c3cccc(OC)c3OC)n2C)n(CC)c1=O`, 195 to 196 °C; for `CCCc1nc2c(N)nc3cc(OCc4ccc(C(C)(C)C)cc4)ccc3c2n1CC(C)C`, 204 to 205 °C. The molecule `CCN(CC)C(=O)n1ccc(S(=O)(=O)c2cc(Cl)ccc2C)n1` registered a melting point of 96 to 97 °C. The molecule `CCCc1c(O)c(C(C)=O)cc2c1CCCC2` displayed a melting point of 52 to 53 °C. The value for `COc1ccc(C(=O)Nc2nc3ccc(N(C)C)cc3c(N=Cc3ccccc3)c2C#N)cc1` was 185 °C.

On to `CN(C)C(=O)CC1(O)C(=O)Nc2ccc(I)cc21` (configuration not stated), for which the melting point came out at 246 °C.

The molecule `O=c1[nH]ccc2cc3cccnc3n12` returned a melting point of 265 to 266 °C.

In turn, `CCOC(=O)c1c(O)c2cc(C)ccc2[nH]c1=O` yielded a melting point of 242 °C. For `O=C(O)c1ccc(Nc2noc(C(F)(F)F)n2)cc1` the value was 244 to 246 °C; for `CCOc1nc(Cl)nc(N(C)C)n1`, 124 °C.

For `O=C(O)c1ccc(-c2nc(-c3ccc(Cl)s3)co2)cc1`, the melting point turned out to be 300 °C.

`N#Cc1cn(-c2ccc(F)cc2F)c(=O)n(SC(Cl)(Cl)Cl)c1=O`: the melting point was 196 to 198 °C. Regarding `CC1(C)C=NC(CC(=O)O)(NC(c2ccccc2)(c2ccccc2)c2ccccc2)S1` (configuration not stated), the melting point lay within 180 to 182 °C. In turn, `CSC[C@H](NC(C)=O)C(=O)N(C)N` returned a melting point of 156 to 157 °C.

`COc1nc2cc(C)c(Cl)c(NS(C)(=O)=O)c2nc1OC` gave a melting point of 198 °C.

Molecule `CC(C)(C)c1ccc(CC(=O)O)c(Cc2ccc(CC(=O)O)cc2)c1` displayed a melting point of 138 to 139 °C.

On to `CN(C)Cc1cccc(-c2cc3c4c(ccn4C(=O)CNC3)c2)c1`, for which the melting point was in the range of 98 to 100 °C. For `CCCOc1c(C(=O)OCC)oc2ccc([N+](=O)[O-])cc12` the value was 107 °C; for `Cc1ccc(Br)cc1-c1c(O)c(C)nn(C)c1=O`, 217 to 218 °C. For `CC(=O)N1N=C(c2ccc(N)c(C)c2)c2cc3c(cc2C[C@H]1C)OCO3` the value was 123 to 130 °C; for `COc1ccccc1-n1c(Cn2cnc3c(N)ncnc32)nc2cccc(Cl)c2c1=O`, 257 °C.

As for `O=C1C(c2ccccc2)=C(c2ccccc2)C(=O)N1Cc1ccc(F)cc1`, the melting point is 124 to 125 °C.

`CC(C)(C)OC(=O)N1CCC[C@H](COc2ccccc2O)C1` showed a melting point of 98 to 101 °C.

With `COc1cc(OC)nc(Oc2ccc3[nH]c(C)c(C=O)c3c2C(=O)OCc2ccccc2)n1`, the melting point lay within 148 to 149 °C. In turn, `Nc1ccc2c(c1)OCC(CN1CC=C(c3c[nH]c4ccccc34)CC1)O2` (configuration not stated) returned a melting point of 199 to 200 °C. The value for `CC(=O)N1CCc2ccc(C(=O)CCCC3CCN(Cc4ccc(F)cc4)CC3)cc2CC1` was 92 to 94 °C; that for `O=C(CCCCl)NC1c2ccccc2CS(=O)(=O)c2ccccc21` (configuration not stated) was 215 to 227 °C; that for `CCOC(=O)c1cnc2ccc(CC3CCOCC3)cc2c1O` was 275 to 280 °C. `Cn1c(C(F)(F)F)cc(=O)n(-c2cc(OCC(C)(C)C)c(Cl)cc2F)c1=O` gave a melting point of 122 to 124 °C. For `O=S1(=O)NCN(CCF)c2cc(Cl)c(Cl)cc21` the value was 156 to 157 °C; for `CCNCC1CCN(c2c(F)c(C)c3c(=O)c(C(=O)O)cn(C4CC4)c3c2F)C1` (configuration not stated), 198 to 199 °C; for `O=C1Nc2ccccc2OC1CCCN1CCC(Cc2ccccc2)CC1` (configuration not stated), 108 °C.

Take `CCN(CC)CCCCOc1ccc(-c2nnc(CSCCOc3ccccc3)o2)cc1`: the melting point lay within 35 to 38 °C. Consider `OCc1cc(-c2ccccc2)no1`, for which the melting point was in the range of 48 to 50 °C. For `CCC(=O)c1ccc(-c2ccc(=O)[nH]n2)cc1` the value was 202 to 205 °C. `NC(=O)CCNc1ccc(OC(F)(F)F)cc1` showed a melting point of 76 °C. For `CCC(=C(c1ccc(O)cc1)c1ccc(O)cc1)c1ccc(OCCO)c(OC)c1`, the melting point was in the range of 158 to 159 °C. In turn, `O=c1[nH]c2cc(Cl)cc(Cl)c2c(O)c1Sc1ccc(O)cc1` registered a melting point above 300 °C.

Turning to `O=C(O)C(=O)c1ccc(CCCNC(=O)c2ccc3ccccc3c2)cc1`, the melting point lay within 126 to 128 °C. For `CC(=O)SCC(C(=O)N1CCC(=C2c3ccc(Cl)cc3CCc3cccnc32)CC1)c1ccccc1` (configuration not stated) the value was 92.7 to 93 °C; for `CCn1nc(C(C)(C)C)c2c1C(=S)NCC(c1ccccc1)=N2`, 230 °C. Consider `Cc1nc(N)nc(N)c1-c1cc(Cl)cc(Cl)c1`, for which the melting point fell in the range of 242 to 244 °C. For `O=C(N[C@H](Cc1ccccc1C(F)(F)F)[C@@H](O)c1ccc(F)cc1)C1CCCCC1` (racemic), the melting point lay within 216 to 217 °C. `C[N+]([O-])=C(Cn1ccnc1)c1ccc2ccccc2c1` gave a melting point of 112 to 114 °C.

In the case of `CC(NC(=O)C1=C(C(=O)Nc2cc(OC3CCCCC3)c(Cl)cc2F)CCCC1)c1ccccc1` (configuration not stated), the melting point was in the range of 156 to 159 °C.

By melting point is commonly meant the temperature of the solid-liquid transition.
